Values quoted from earlier work, collected in patent publication US20120225135A1 (priority 2010, published 2012).

Test system: biofilm
Conditions: cited from earlier work

Row | Molecule | effect on biofilm | effect on biofilm detachment | further results
1 | O=CCCCC=O [Glutaraldehyde] | no effect on biofilm | – | –
2 | O=[O+][O-] [Ozone] | kill cells in the biofilm without any detachment of the biofilm | – | –
3 | OO [hydrogen peroxide] | – | very poor to no effect | –
4 | CC(=O)OO [peracetic acids] | – | very poor to no effect | –
5 | chloramines | – | – | detachment of biofilms: very effective
